Measured values as given in patent US12319663B2, “Alkene-containing amide compound and application thereof” (SHENYANG SINOCHEM AGROCHEMICALS R&D CO., LTD., priority 2019, dated 2025).

Columns and labels:
Format in all cases: in vivo
zinnia = assay: Herbicidal activity, post-emergence stem and leaf spray, greenhouse: zinnia control; details: visual, 0 = no control effect, 100% = complete killing
Description: (§1) Seeds of broadleaf weeds (zinnia and piemarker) or grassy weeds (green bristlegrass and barnyard grass) are respectively sown in a paper cup having a diameter of 7 cm and containing nutrient soil; after sowing, the seeds are covered with 1 cm of soil; the soil is pressed and watered, and then the seeds are cultivated in a greenhouse according to a conventional method; and stems and leaves are sprayed after 2-3 leaf stage of the weeds.
(§2) After the original medicinal acetone was dissolved, the test requires to use 1% of Tween 80 to stand in running water to prepare the solution to be tested with a required concentration. According to the design dose of the test, spray treatment was carried out on a track-type crop sprayer (designed and produced by British Engineer Research Ltd.) (spray pressure is 1.95 kg/cm^2, spray volume is 50 L/hm^2 and track speed is 1.48 km/h). The test was repeated for three times. The test material was treated and then placed in an operation hall. The medicinal liquid was naturally dried in the shade, and then was placed in a greenhouse and managed according to the conventional method, The response of the weeds to the drug was observed and recorded, After treatment, the control effects of the test drug on the weeds were visually inspected regularly, expressed by 0-100%. “0” represents no control effect and “100%” represents complete killing.
According to the above test method, part of the compounds of the formula I and KC are selected for activity test of controlling the zinnia.

piemarker = assay: Herbicidal activity, post-emergence stem and leaf spray, greenhouse: piemarker control
Description: as §1, §2
According to the above test method, part of the compounds of the formula I and KC are selected for activity test of controlling the piemarker. […]

green bristlegrass = assay: Herbicidal activity, post-emergence stem and leaf spray, greenhouse: green bristlegrass control
Description: as §1, §2
According to the above test method, part of the compounds of the formula I and KC are selected for the activity test of controlling the green bristlegrass.

barnyard grass = assay: Herbicidal activity, post-emergence stem and leaf spray, greenhouse: barnyard grass control
Description: as §1, §2
According to the above test method, part of the compounds of the formula I and KC are selected for the activity test of controlling the barnyard grass.

[1] = dose 37.5 g a.i./hm2, post-emergence stem and leaf spray
[2] = dose 150 g a.i./hm2, post-emergence stem and leaf spray

Cn1nnnc1N(C(=O)c1ccccc1)C(=O)c1ccc(C(F)(F)F)cc1S(C)(=O)=O [KC, reference compound]
Zinnia control activity (after emergence, control effect %) (zinnia; dose 37.5 g a.i./hm^2): 65%
Zinnia control activity (after emergence, control effect %) (zinnia; dose 150 g a.i./hm^2): 90%
Piemarker control activity (after emergence, control effect %) (piemarker; [1]): 60%
Piemarker control activity (after emergence, control effect %) (piemarker; [2]): 85%
Green bristlegrass control activity (after emergence, control effect %) (green bristlegrass; [1]): 45%
Green bristlegrass control activity (after emergence, control effect %) (green bristlegrass; [2]): 70%
Barnyard grass control activity (after emergence, control effect %) (barnyard grass; [1]): 50%
Barnyard grass control activity (after emergence, control effect %) (barnyard grass; [2]): 65%
